Results from paper PMC9516332 (Frontiers in Oncology, 2022).
Read-outs that look alike come from different tables or passages of the source.

Tests used:
134 cancer cell lines = assay: Cell viability assay (ATPlite, 72 hours), IC50 on cancer cell line panel
[1] = target: panel of 255 wild-type kinases (Homo sapiens, UniProt P45983); assay: Kinase panel profiling at 1 µmol/L (MSA or IMAP), percentage inhibition; type: biochemical; settings: kinase JNK1; 1 µmol/L single concentration; read-out: %-inhibition at 1 µmol/L, JNK1
[2] = target: T1, panel of 255 wild-type kinases (Homo sapiens, UniProt Q8IW41); assay: as above; type: biochemical; settings: MAPKAPK5; 1 µmol/L single concentration; read-out: %-inhibition, MAPKAPK5
T1 sequence (Q8IW41 1-473): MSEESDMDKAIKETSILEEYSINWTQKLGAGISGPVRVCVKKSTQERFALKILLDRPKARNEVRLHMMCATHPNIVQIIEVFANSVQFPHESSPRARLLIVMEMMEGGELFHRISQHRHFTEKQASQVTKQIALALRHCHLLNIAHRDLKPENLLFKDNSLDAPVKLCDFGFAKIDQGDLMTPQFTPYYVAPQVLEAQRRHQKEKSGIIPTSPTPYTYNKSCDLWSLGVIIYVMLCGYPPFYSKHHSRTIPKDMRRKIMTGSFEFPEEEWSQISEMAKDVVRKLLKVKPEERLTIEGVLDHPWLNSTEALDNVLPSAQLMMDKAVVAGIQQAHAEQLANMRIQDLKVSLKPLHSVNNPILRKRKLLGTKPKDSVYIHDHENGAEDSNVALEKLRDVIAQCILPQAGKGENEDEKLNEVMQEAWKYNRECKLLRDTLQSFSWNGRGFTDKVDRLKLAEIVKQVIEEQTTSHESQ

AP-1060 (ETV6-NTRK3) = assay: Cell viability assay; settings: read-out: IC50 in cell proliferation assay

- IC50 (134 cancer cell lines; Homo sapiens, MeWo, read-out: IC50 in cell proliferation assay, MeWo cell line): > 31.6 µM
- IC50 (134 cancer cell lines; Homo sapiens, NCCIT, read-out: IC50 in cell proliferation assay, NCC-IT cell line): 8.35 µM
- IC50 (134 cancer cell lines; Homo sapiens, NCI-H82, read-out: IC50 in cell proliferation assay, cell line NCI-H82): 11.1 µM
- IC50 (134 cancer cell lines; Homo sapiens, NCI-H460, read-out: IC50 in cell proliferation assay, NCI-H460 cell line): 7.11 µM
- IC50 (134 cancer cell lines; Homo sapiens, NCI-H661, read-out: IC50 in cell proliferation assay, NCI-H661 cell line): 9.63 µM
- IC50 (134 cancer cell lines; Homo sapiens, NCI-H716, read-out: IC50 in cell proliferation assay, cell line NCI-H716 (FGFR2-COL14A1)): 0.049 µM
- IC50 (134 cancer cell lines; Homo sapiens, NCI-H1650, read-out: IC50 in cell proliferation assay, NCI-H1650 cell line (EGFR exon19del)): 18.1 µM
- IC50 (134 cancer cell lines; Homo sapiens, NCI-H1975, read-out: IC50 in cell proliferation assay, NCI-H1975 cell line (EGFR p.L858R + p.T790M)): 1.49 µM
- IC50 (134 cancer cell lines; Homo sapiens, NCI-H2228, read-out: IC50 in cell proliferation assay, NCI-H2228 cell line (EML4-ALK)): 4.04 µM
- IC50 (134 cancer cell lines; Homo sapiens, OVCAR-3, read-out: IC50 in cell proliferation assay, cell line OVCAR-3): 6.11 µM
- IC50 (134 cancer cell lines; Homo sapiens, PFSK-1, read-out: IC50 in cell proliferation assay, cell line PFSK-1): 0.52 µM
- IC50 (134 cancer cell lines; Homo sapiens, RL95-2, read-out: IC50 in cell proliferation assay, cell line RL95-2 (EGFR p.A289V)): 18.3 µM
- IC50 (134 cancer cell lines; Homo sapiens, RPMI-7951, read-out: IC50 in cell proliferation assay, cell line RPMI-7951 (BRAF p.V600E)): 10.1 µM
- IC50 (134 cancer cell lines; Homo sapiens, RS4-11, read-out: IC50 in cell proliferation assay, cell line RS4;11): 4.25 µM
- IC50 (134 cancer cell lines; Homo sapiens, Rec1, read-out: IC50 in cell proliferation assay, cell line REC-1): 3.14 µM
- IC50 (134 cancer cell lines; Homo sapiens, SHP77, read-out: IC50 in cell proliferation assay, cell line SHP-77): > 31.6 µM
- IC50 (134 cancer cell lines; Homo sapiens, SK-BR-3, read-out: IC50 in cell proliferation assay, cell line SK-BR-3 (ERBB2 amplification)): 0.676 µM
- IC50 (134 cancer cell lines; Homo sapiens, SK-N-AS, read-out: IC50 in cell proliferation assay, cell line SK-N-AS): 0.065 µM
- IC50 (134 cancer cell lines; Homo sapiens, SK-N-FI, read-out: IC50 in cell proliferation assay, cell line SK-N-FI): 3.1 µM
- IC50 (134 cancer cell lines; Homo sapiens, SK-N-MC, read-out: IC50 in cell proliferation assay, cell line SK-N-MC): 2.6 µM
- IC50 (134 cancer cell lines; Homo sapiens, SK-N-SH, read-out: IC50 in cell proliferation assay, cell line SK-N-SH (ALK p.F1174L)): 0.42 µM
- IC50 (134 cancer cell lines; Homo sapiens, SNU-5, read-out: IC50 in cell proliferation assay, cell line SNU-5 (MET amplification)): 13.9 µM
- IC50 (134 cancer cell lines; Homo sapiens, SNU-16, read-out: IC50 in cell proliferation assay, cell line SNU-16 (FGFR2 amplification)): > 31.6 µM
- IC50 (134 cancer cell lines; Homo sapiens, SNU-C2B, read-out: IC50 in cell proliferation assay, cell line SNU-C2B (EGFR p.R165Q)): 7.04 µM
- IC50 (134 cancer cell lines; Homo sapiens, SU-DHL-1, read-out: IC50 in cell proliferation assay, cell line SU-DHL-1 (NPM1-ALK)): 21.2 µM
- IC50 (134 cancer cell lines; Homo sapiens, SU-DHL-6, read-out: IC50 in cell proliferation assay, cell line SU-DHL-6): 1.55 µM
- IC50 (134 cancer cell lines; Homo sapiens, SUP-T1, read-out: IC50 in cell proliferation assay, cell line SUP-T1): 6.02 µM
- IC50 (134 cancer cell lines; Homo sapiens, SW48, read-out: IC50 in cell proliferation assay, cell line SW48 (EGFR p.G719S)): 1.15 µM
- IC50 (134 cancer cell lines; Homo sapiens, SW480, read-out: IC50 in cell proliferation assay, cell line SW480): 8.85 µM
- IC50 (134 cancer cell lines; Homo sapiens, SW626, read-out: IC50 in cell proliferation assay, cell line SW626): 8.63 µM
- IC50 (134 cancer cell lines; Homo sapiens, SW780, read-out: IC50 in cell proliferation assay, cell line SW780 (FGFR3-BAIAP2L1)): 9.85 µM
- IC50 (134 cancer cell lines; Homo sapiens, SW837, read-out: IC50 in cell proliferation assay, cell line SW837): 21.9 µM
- IC50 (134 cancer cell lines; Homo sapiens, SW872, read-out: IC50 in cell proliferation assay, cell line SW872 (BRAF p.V600E)): 18.8 µM
- IC50 (134 cancer cell lines; Homo sapiens, SW900, read-out: IC50 in cell proliferation assay, cell line SW900): 4.43 µM
- IC50 (134 cancer cell lines; Homo sapiens, SW948, read-out: IC50 in cell proliferation assay, cell line SW948): 3.3 µM
- IC50 (134 cancer cell lines; Homo sapiens, SW982, read-out: IC50 in cell proliferation assay, cell line SW982 (BRAF p.V600E)): 22.6 µM
- IC50 (134 cancer cell lines; Homo sapiens, SW-620, read-out: IC50 in cell proliferation assay, cell line SW620): 6.94 µM
- IC50 (134 cancer cell lines; Homo sapiens, T98G, read-out: IC50 in cell proliferation assay, cell line T98G): 7.14 µM
- IC50 (134 cancer cell lines; Homo sapiens, TCC-SUP, read-out: IC50 in cell proliferation assay, cell line TCCSUP): 1.1 µM
- IC50 (134 cancer cell lines; Homo sapiens, THP-1, read-out: IC50 in cell proliferation assay, cell line THP-1): 0.117 µM
- IC50 (134 cancer cell lines; Homo sapiens, U2OS, read-out: IC50 in cell proliferation assay, cell line U2OS): 19.3 µM
- IC50 (134 cancer cell lines; Homo sapiens, U-87 MG, read-out: IC50 in cell proliferation assay, cell line U-87MG ATCC): 17.5 µM
- IC50 (134 cancer cell lines; Homo sapiens, U-118-MG, read-out: IC50 in cell proliferation assay, cell line U-118MG): 16.6 µM
- IC50 (134 cancer cell lines; Homo sapiens, UMUC3, read-out: IC50 in cell proliferation assay, cell line UM-UC-3): 17.1 µM
- IC50 (134 cancer cell lines; Hs766T, read-out: IC50 in cell proliferation assay, Hs 766T cell line): 7.45 µM
- IC50 (134 cancer cell lines; L-82, read-out: IC50 in cell proliferation assay, L-82 cell line (NPM1-ALK)): 20.5 µM
- IC50 (134 cancer cell lines; Rh30, read-out: IC50 in cell proliferation assay, cell line Rh30): 3.91 µM
- IC50 (134 cancer cell lines; read-out: IC50 in cell proliferation assay, 11-18 cell line (EGFR p.L858R)): 15.5 µM
- IC50 (134 cancer cell lines; read-out: IC50 in cell proliferation assay, Hs 852.T cell line): 5.79 µM
- IC50 (134 cancer cell lines; read-out: IC50 in cell proliferation assay, JAR cell line): 23.2 µM
- IC50 (134 cancer cell lines; read-out: IC50 in cell proliferation assay, cell line 5637): 12.8 µM
- IC50 (134 cancer cell lines; read-out: IC50 in cell proliferation assay, cell line A-388): 2.91 µM
- IC50 (134 cancer cell lines; read-out: IC50 in cell proliferation assay, cell line DB): 23 µM
- IC50 (134 cancer cell lines; read-out: IC50 in cell proliferation assay, cell line DEL (NPM1-ALK)): 27.8 µM
- IC50 (134 cancer cell lines; read-out: IC50 in cell proliferation assay, cell line ES-2 (BRAF p.V600E)): > 31.6 µM
- IC50 (134 cancer cell lines; read-out: IC50 in cell proliferation assay, cell line PA-1): 17.6 µM
- IC50 (134 cancer cell lines; read-out: IC50 in cell proliferation assay, cell line PC-3): 22.7 µM
- IC50 (134 cancer cell lines; read-out: IC50 in cell proliferation assay, cell line RD): 1.15 µM
- IC50 (134 cancer cell lines; read-out: IC50 in cell proliferation assay, cell line RKO (BRAF p.V600E)): 11 µM
- IC50 (134 cancer cell lines; read-out: IC50 in cell proliferation assay, cell line RL): 18.9 µM
- IC50 (134 cancer cell lines; read-out: IC50 in cell proliferation assay, cell line RT-4 (FGFR3-TACC3)): 0.12 µM
- IC50 (134 cancer cell lines; read-out: IC50 in cell proliferation assay, cell line SR (NPM1-ALK)): 10.9 µM
- IC50 (134 cancer cell lines; read-out: IC50 in cell proliferation assay, cell line T24): 1.08 µM
- IC50 (134 cancer cell lines; read-out: IC50 in cell proliferation assay, cell line TT (RET p.C634W)): > 31.6 µM
- IC50 (134 cancer cell lines; read-out: IC50 in cell proliferation assay, cell line VA-ES-BJ): 5.92 µM
- inhibition at 1 µM [1]: -5%
- inhibition at 1 µM [2]: -2.15%
Compound: Cc1nc(NC(=O)N2CCC[C@H]2C(N)=O)sc1-c1ccnc(C(C)(C)C(F)(F)F)c1 [alpelisib]
- IC50 (AP-1060 (ETV6-NTRK3)): 1.74 µM
